# According to PMC11477289, “Low-Basicity 5-HT6 Receptor Ligands from the Group of Cyclic Arylguanidine Derivatives and Their Antiproliferative Activity Evaluation” (International Journal of Molecular Sciences, 2024):
# Like-named read-outs stand apart in the source and are kept apart here.
# What was measured:
# [1] = Chromatographic hydrophobicity index on C18 column (lipophilicity); assay type: physicochemical
# Source text: (§1) We began with an assay for lipophilicity, affinity for phospholipids (for 40 compounds), and drug binding to human serum albumin (HSA) (for 20 compounds), using chromatographic protocols developed by Valko [46] and implemented in our laboratory [47]. […] These methods allowed the determination of chromatographic hydrophobicity indices (CHIs), binding to HSA (%HSA), and phospholipids (CHIIAM) using a single-gradient elution experiment and comparison to reference substances.
# [2] = Affinity to phospholipids, IAM column (CHI IAM); assay type: physicochemical; settings: IAM.PC.DD2 column, pH 7.4
# Source text: as §1
# [3] = target: human serum albumin (HSA) (Homo sapiens, UniProt P02768); assay: Binding to HSA, Chiralpak HSA column
# Chain of human serum albumin (HSA) (P02768 25-609): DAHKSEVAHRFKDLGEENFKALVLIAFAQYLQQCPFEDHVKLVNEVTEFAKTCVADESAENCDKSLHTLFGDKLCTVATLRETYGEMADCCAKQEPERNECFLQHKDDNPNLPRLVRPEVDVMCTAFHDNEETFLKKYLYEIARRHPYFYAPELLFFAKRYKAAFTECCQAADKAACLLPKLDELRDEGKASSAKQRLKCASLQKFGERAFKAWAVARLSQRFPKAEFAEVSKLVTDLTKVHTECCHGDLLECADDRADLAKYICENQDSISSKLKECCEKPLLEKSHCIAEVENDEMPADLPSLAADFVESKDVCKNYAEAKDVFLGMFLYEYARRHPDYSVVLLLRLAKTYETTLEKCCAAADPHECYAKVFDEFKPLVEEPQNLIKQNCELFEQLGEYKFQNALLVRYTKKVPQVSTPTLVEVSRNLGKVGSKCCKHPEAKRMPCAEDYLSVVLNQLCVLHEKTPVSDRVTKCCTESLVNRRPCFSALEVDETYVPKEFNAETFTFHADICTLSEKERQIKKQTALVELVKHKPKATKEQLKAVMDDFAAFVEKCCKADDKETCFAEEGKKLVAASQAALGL
# Source text: We began with an assay for lipophilicity, affinity for phospholipids (for 40 compounds), and drug binding to human serum albumin (HSA) (for 20 compounds), using chromatographic protocols developed by Valko [46] and implemented in our laboratory. Compounds with the highest affinity for 5-HT6R and those showing the most promising ADMET parameters, including the possibility of BBB penetration, DDI, and lipophilicity, determined in silico in SwissADME [45], were selected for testing. These methods allowed the determination of chromatographic hydrophobicity indices (CHIs), binding to HSA (%HSA), and phospholipids (CHIIAM) using a single-gradient elution experiment and comparison to reference substances.
# The use of columns modified with plasma proteins, such as HSA, also allows for the estimation of binding to HSA, which is the most dominant plasma protein (PP). Binding to PP affects drug pharmacokinetics, such as distribution, half-life, and clearance.
# The mobile phase flow rate was 1.5 mL/min, and the column was maintained at 30 °C. • Chiralpak® HSA (50 mm × 4 mm; 5 µm with safety guard column; Daicel Chiral Technologies, West Chester, PA, USA), mobile phase A: 50 mM ammonium acetate, mobile phase B: HPLC-grade isopropanol (VWR International, Leuven, Belgium). For the first 15 min, the linear gradient from 0 to 20% isopropanol was applied and then held at 20% isopropanol for 12 min. In the last 5 min of the sequence, the mobile phase mixture received a pure ammonium acetate solution. The column temperature was held at 30 °C, whereas the flow rate was 0.9 mL/min.
# The reference substances for the calibration of HSA, C18, and IAM columns were purchased, respectively: acetanilide, butyrophenone, diclofenac, and octanonophenone (Alfa Aesar, Haverhill, MA, USA); acetophenone, benzimidazole, colchicine, indole, indometacin, paracetamol, and theophylline (Sigma-Aldrich, Steinheim, Germany); nicardipine and nizatidine (Cayman Chemical, Ann Arbor, MI, USA); carbamazepine, heptanophenone, hexanophenone, propiophenone, and valerophenone (Acros Organic, Pittsburg, PA, USA). Before chromatographic experiments, solutes were dissolved in dimethyl sulfoxide (Avantor Performance Materials Poland S.A., Gliwice, Poland) to obtain a 200 µg/mL concentration. The detection was performed in the UV region at the wavelength from 190 nm to 300 nm. The injected volume was 5 μL, and each compound was analyzed in triplicate.
# human 5-HT6 = target: T1, human 5-HT6 (Homo sapiens, UniProt P50406); assay: [3H]-LSD radioligand binding assay, 5-HT6R; settings: HEK293 expressing human 5-HT6R
# T1 construct: expressed in transfected cells
# T1 sequence (P50406 whole entry): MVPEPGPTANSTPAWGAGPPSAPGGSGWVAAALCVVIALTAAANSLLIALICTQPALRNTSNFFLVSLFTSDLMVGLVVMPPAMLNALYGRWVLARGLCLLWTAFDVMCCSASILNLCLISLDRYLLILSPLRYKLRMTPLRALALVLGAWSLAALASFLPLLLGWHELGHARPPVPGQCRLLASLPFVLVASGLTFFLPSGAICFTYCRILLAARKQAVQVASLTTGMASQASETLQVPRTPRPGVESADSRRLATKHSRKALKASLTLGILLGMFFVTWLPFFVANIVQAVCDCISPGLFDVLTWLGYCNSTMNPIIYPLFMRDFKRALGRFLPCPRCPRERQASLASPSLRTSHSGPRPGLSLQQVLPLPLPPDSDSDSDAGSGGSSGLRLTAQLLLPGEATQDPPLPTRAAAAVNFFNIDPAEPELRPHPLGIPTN
# Description: Next, the ligands’ affinity for the 5-HT6 receptors was evaluated in the [^3H]-LSD radioligand binding assay. Experiments were performed in a stable HEK293 cell line expressing the human 5-HT6R.
# The pellets were stored at −80 °C.
# U87MG glioblastoma cells = assay: Antiproliferative activity (MTS), U87MG; settings: Homo sapiens, U-87 MG, 72 h, read-out: IC50 Values U87MG
# [4] = system: 1321N1 astrocytoma cell line; assay: Antiproliferative activity (MTS), 1321N1; settings: Homo sapiens, 1321-N1, 72 h, read-out: IC50 Values 1321N1
Compound,CHI C18 pH 2.6 [1],CHI C18 pH 7.4 [1],CHI C18 pH 10.5 [1],CHI IAM [2],%HSA [3] [%],logKHSA ([3]; Chiralpak HSA column),Ki (human 5-HT6; read-out: 5-HT6 Ki) [nM],IC50 (U87MG glioblastoma cells) [nM],IC50 [4] [nM],melting point [°C],Ki (human 5-HT6; 5-HT6 Ki) [nM],%HSA ([3]; Chiralpak HSA column) [%]
"CN(C)CCC=C1c2ccccc2CCc2ccccc21 [Amitriptyline, reference compound]",65.9,112.0,116.3,47.0,88.9,0.87,–,–,–,–,–,–
"O=S(=O)(NC1=Nc2cccc(Cl)c2CN1)c1cccc2ccccc12 [PR 46, N -(5-chloro-3,4-dihydroquinazolin-2-yl)naphthalene-1-sulfonamide]",–,–,–,–,–,–,160 ± 36,> 25000,> 25000,–,–,–
"COc1ccc(C(CN(C)C)C2(O)CCCCC2)cc1 (centres unmarked) [Venlafaxine, reference compound]",53.5,82.2,92.9,29.9,–,-0.55,–,–,–,–,–,–
"CC1NC(NS(=O)(=O)c2cccc3ccccc23)=Nc2ccccc21 (centres unmarked) [PR 67, N -(4-methyl-3,4-dihydroquinazolin-2-yl)naphthalene-1-sulfonamide]",–,–,–,–,–,–,236 ± 58,> 25000,> 25000,169 to 174,–,–
"COc1cccc2c1C(=O)c1c(O)c3c(c(O)c1C2=O)C[C@@](O)(C(=O)CO)C[C@@H]3O[C@H]1C[C@H](N)[C@H](O)[C@H](C)O1 [Doxorubicin, reference compound]",–,–,–,–,–,–,–,–,1100,–,–,–
"O=S(=O)(NC1=Nc2ccccc2CN1)c1ccc(F)cc1 [PR 14, N-(3,4-dihydroquinazolin-2-yl)-4-fluorobenzene-1-sulfonamide]",75.4,75.0,75.7,31.3,–,–,2440 ± 610,–,–,215 to 216,–,–
"O=S(=O)(NC1=Nc2ccccc2CN1)c1cccc2c(Cl)cccc12 [PR 43, 5-chloro-N-(3,4-dihydroquinazolin-2-yl)naphthalene-1-sulfonamide]",–,–,–,–,–,–,258 ± 46,> 25000,> 25000,185 to 191,–,–
"O=S(=O)(NC1=Nc2ccccc2CN1)c1ccc(Cl)c(Cl)c1 [PR 21, N -(3,4-dihydroquinazolin-2-yl)-3,4-dichlorobenzene-1-sulfonamide]",94.2,92.3,95.2,42.0,–,–,1020 ± 256,–,–,192 to 193,–,–
"COc1ccc2c(c1)N=C(NS(=O)(=O)c1cccc3ccccc13)NC2 [PR 60, N -(7-methoxy-3,4-dihydroquinazolin-2-yl)naphthalene-1-sulfonamide]",88.2,87.0,90.3,39.2,–,–,1410 ± 326,–,–,213 to 217,–,–
"CC1NC(NS(=O)(=O)c2cccc3ccccc23)=Nc2cc(Cl)ccc21 (centres unmarked) [PR 70, N -(7-chloro-4-methyl-3,4-dihydroquinazolin-2-yl)naphthalene-1-sulfonamide]",100.2,99.7,101.0,45.8,–,–,985 ± 245,–,–,214 to 219,–,–
"CC1NC(NS(=O)(=O)c2ccc3ccccc3c2)=Nc2cc(Cl)ccc21 (centres unmarked) [PR 37, N -(7-chloro-4-methyl-3,4-dihydroquinazolin-2-yl)naphthalene-2-sulfonamide]",101.0,100.1,102.6,46.1,–,–,2220 ± 534,–,–,167 to 171,–,–
"COc1ccc2c(c1)CNC(NS(=O)(=O)c1cccc3ccccc13)=N2 [PR 59, N -(6-methoxy-3,4-dihydroquinazolin-2-yl)naphthalene-1-sulfonamide]",84.9,85.0,88.4,38.2,–,–,1960 ± 452,–,–,263 to 266,–,–
"Nc1nc2ccccc2n1S(=O)(=O)c1csc2ccccc12 [PR 8, 1-(1-benzothiophene-3-sulfonyl)-1H-1,3-benzodiazol-2-amine]",89.8,90.3,91.0,40.3,–,–,–,–,–,192 to 195,133 ± 33,–
"CN1CCN2c3ncccc3Cc3ccccc3C2C1 (centres unmarked) [Mirtazapine, reference compound]",46.7,101.2,79.0,39.3,–,0.51,–,–,–,–,–,76.9
"O=S(=O)(NC1=Nc2cc(F)ccc2CN1)c1cccc2ccccc12 [PR 56, N -(7-fluoro-3,4-dihydroquinazolin-2-yl)naphthalene-1-sulfonamide]",91.0,89.0,95.4,40.5,–,–,876 ± 201,–,–,222 to 226,–,–
"CN1CCN2c3ccccc3Cc3ccccc3C2C1 (centres unmarked) [Mianserin, reference compound]",59.4,108.6,98.7,44.2,–,0.95,–,–,–,–,–,90.9
"O=S(=O)(NC1=Nc2ccccc2CN1)c1cc(Cl)cc(Cl)c1 [PR 23, 3,5-dichloro-N-(3,4-dihydroquinazolin-2-yl)benzene-1-sulfonamide]",95.2,94.6,97.7,42.6,–,–,609 ± 152,–,–,208 to 211,–,–
"O=S(=O)(NC1=Nc2cc(Cl)ccc2CN1)c1ccc2ccccc2c1 [PR 33, N -(7-chloro-3,4-dihydroquinazolin-2-yl)naphthalene-2-sulfonamide]",98.3,96.4,99.9,44.9,–,–,1960 ± 434,–,–,220 to 222,–,–
"O=S(=O)(NC1=Nc2cc(Cl)ccc2CN1)c1cccc2ccccc12 [PR 48, N -(7-chloro-3,4-dihydroquinazolin-2-yl)naphthalene-1-sulfonamide]",97.6,97.1,95.9,44.6,–,–,668 ± 156,–,–,214 to 219,–,–
